Assay results: ChEMBL document CHEMBL3044527, “Involvement of melanin synthesis and reactive oxygen species in phytotoxic action of l-DOPA in carrot cells” (2007)
Calls of active or inactive are those of the source. No cut-off for these calls is given here.

Tests used:
Type in all cases: functional
Daucus carota [1] = assay: Phytotoxicity against Daucus carota (carrot) cells grown in culture assessed as melanin per packed cell volume at 1 mM after 6 days by spectrophotometric analysis in presence of alpha-tocopherol (reference value: 27.2 ug per packed cell volume)
Daucus carota [2] = assay: Phytotoxicity against Daucus carota (carrot) cells grown in culture assessed as melanin per packed cell volume at 1 mM after 4 days by spectrophotometric analysis in presence of alpha-tocopherol (reference value: 21.3 ug per packed cell volume)
Daucus carota [3] = assay: Phytotoxicity against Daucus carota (carrot) cells grown in culture assessed as melanin per packed cell volume at 1 mM after 2 days by spectrophotometric analysis in presence of alpha-tocopherol (reference value: 23.7 ug per packed cell volume)
Daucus carota [4] = assay: Phytotoxicity against Daucus carota (carrot) cells grown in culture assessed as melanin per packed cell volume at 1 mM after 6 days by spectrophotometric analysis in presence of ascorbic acid (reference value: 27.2 ug per packed cell volume)
Daucus carota [5] = assay: Phytotoxicity against Daucus carota (carrot) cells grown in culture assessed as melanin per packed cell volume at 1 mM after 4 days by spectrophotometric analysis in presence of ascorbic acid (reference value: 21.3 ug per packed cell volume)
Daucus carota [6] = assay: Phytotoxicity against Daucus carota (carrot) cells grown in culture assessed as melanin per packed cell volume at 1 mM after 2 days by spectrophotometric analysis in presence of ascorbic acid (reference value: 23.7 ug per packed cell volume)
Daucus carota [7] = assay: Phytotoxicity against Daucus carota (carrot) cells grown in culture assessed as melanin per packed cell volume at 1 mM after 6 days by spectrophotometric analysis (reference value: 27.2 ug per packed cell volume)
Daucus carota [8] = assay: Phytotoxicity against Daucus carota (carrot) cells grown in culture assessed as melanin per packed cell volume at 1 mM after 4 days by spectrophotometric analysis (reference value: 21.3 ug per packed cell volume)
Daucus carota [9] = assay: Phytotoxicity against Daucus carota (carrot) cells grown in culture assessed as melanin per packed cell volume at 1 mM after 2 days by spectrophotometric analysis (reference value: 23.7 ug per packed cell volume)
Daucus carota [10] = assay: Phytotoxicity against Daucus carota (carrot) cells grown in culture assessed as melanin per packed cell volume at 0.1 mM after 6 days by spectrophotometric analysis (reference value: 27.2 ug per packed cell volume)
Daucus carota [11] = assay: Phytotoxicity against Daucus carota (carrot) cells grown in culture assessed as melanin per packed cell volume at 0.1 mM after 4 days by spectrophotometric analysis (reference value: 21.3 ug per packed cell volume)
Daucus carota [12] = assay: Phytotoxicity against Daucus carota (carrot) cells grown in culture assessed as melanin per packed cell volume at 0.1 mM after 2 days by spectrophotometric analysis (reference value: 23.7 ug per packed cell volume)
Daucus carota [13] = assay: Phytotoxicity against Daucus carota (carrot) cells grown in culture assessed as growth inhibition at 1 mM after 2 to 6 days in presence of SOD relative to control
Daucus carota [14] = assay: Phytotoxicity against Daucus carota (carrot) cells grown in culture assessed as growth inhibition at 1 mM after 2 to 6 days in presence of catalase relative to control
Daucus carota [15] = assay: Phytotoxicity against Daucus carota (carrot) cells grown in culture assessed as growth inhibition at 1 mM after 2 to 6 days in presence of alpha-tocopherol relative to control
Daucus carota [16] = assay: Phytotoxicity against Daucus carota (carrot) cells grown in culture assessed as growth inhibition at 1 mM after 6 days in presence of ascorbic acid relative to control
Daucus carota [17] = assay: Phytotoxicity against Daucus carota (carrot) cells grown in culture assessed as growth inhibition at 1 mM after 4 days in presence of ascorbic acid relative to control
Daucus carota [18] = assay: Phytotoxicity against Daucus carota (carrot) cells grown in culture assessed as growth inhibition at 1 mM after 2 days in presence of ascorbic acid relative to control
Daucus carota [19] = assay: Phytotoxicity against Daucus carota (carrot) cells grown in culture assessed as lipid peroxidation at 1 mM after 2 days by TBARS method in presence of alpha-tocopherol relative to control
Daucus carota [20] = assay: Phytotoxicity against Daucus carota (carrot) cells grown in culture assessed as lipid peroxidation at 1 mM after 2 days by TBARS method in presence of ascorbic acid relative to control
Daucus carota [21] = assay: Phytotoxicity against Daucus carota (carrot) cells grown in culture assessed as lipid peroxidation at 1 mM after 4 to 6 days by TBARS method relative to control
Daucus carota [22] = assay: Phytotoxicity against Daucus carota (carrot) cells grown in culture assessed as lipid peroxidation at 1 mM after 2 days by TBARS method relative to control
Daucus carota [23] = assay: Phytotoxicity against Daucus carota (carrot) cells grown in culture assessed as increase in ROS level at 1 mM after 24 hr by MPEC-based chemiluminescence assay in presence of SOD relative to control
Daucus carota [24] = assay: Phytotoxicity against Daucus carota (carrot) cells grown in culture assessed as increase in ROS level at 1 mM after 24 hr by MPEC-based chemiluminescence assay in presence of catalase relative to control
Daucus carota [25] = assay: Phytotoxicity against Daucus carota (carrot) cells grown in culture assessed as increase in ROS level at 1 mM after 24 hr by MPEC-based chemiluminescence assay in presence of ascorbic acid relative to control
Daucus carota [26] = assay: Phytotoxicity against Daucus carota (carrot) cells grown in culture assessed as increase in ROS level after 24 hr by MPEC-based chemiluminescence assay relative to control
Daucus carota [27] = assay: Phytotoxicity against Daucus carota (carrot) cells grown in culture assessed as growth inhibition at 1 mM after 8 days relative to control; conditions: 192 h, values are per cent of control
Daucus carota [28] = assay: Phytotoxicity against Daucus carota (carrot) cells grown in culture assessed as growth inhibition at 1 mM after 6 days relative to control; conditions: 144 h, values are per cent of control
Daucus carota [29] = assay: Phytotoxicity against Daucus carota (carrot) cells grown in culture assessed as growth inhibition at 1 mM after 2 days relative to control; conditions: 48 h, values are per cent of control
Daucus carota [30] = assay: Phytotoxicity against Daucus carota (carrot) cells grown in culture assessed as growth inhibition at 1 mM after 4 days relative to control; conditions: 96 h, values are per cent of control
Daucus carota [31] = assay: Phytotoxicity against Daucus carota (carrot) cells grown in culture assessed as growth inhibition at 0.1 mM after 8 days relative to control; conditions: 192 h, values are per cent of control
Daucus carota [32] = assay: Phytotoxicity against Daucus carota (carrot) cells grown in culture assessed as growth inhibition at 0.1 mM after 4 days relative to control; conditions: 96 h, values are per cent of control
Daucus carota [33] = assay: Phytotoxicity against Daucus carota (carrot) cells grown in culture assessed as growth inhibition at 0.1 mM after 6 days relative to control; conditions: 144 h, values are per cent of control
Daucus carota [34] = assay: Phytotoxicity against Daucus carota (carrot) cells grown in culture assessed as growth inhibition at 0.1 mM after 2 days relative to control; conditions: 48 h, values are per cent of control

## N[C@@H](Cc1ccc(O)c(O)c1)C(=O)O [LEVODOPA]
Daucus carota [1]
  Activity: 28.1 µg
Daucus carota [2]
  Activity: 27.4 µg
Daucus carota [3]
  Activity: 27.9 µg
Daucus carota [4]
  Activity: 28.2 µg
Daucus carota [5]
  Activity: 22.9 µg
Daucus carota [6]
  Activity: 17.9 µg
Daucus carota [7]
  Activity: 66.1 µg
Daucus carota [8]
  Activity: 42.8 µg
Daucus carota [9]
  Activity: 28.4 µg
Daucus carota [10]
  Activity: 32.2 µg
Daucus carota [11]
  Activity: 31.7 µg
Daucus carota [12]
  Activity: 26.8 µg
Daucus carota [13]
  Activity: Active
Daucus carota [14]
  Activity: Active
Daucus carota [15]
  Activity: inactive
Daucus carota [16]
  Activity: inactive
Daucus carota [17]
  Activity: inactive
Daucus carota [18]
  Activity: inactive
Daucus carota [19]
  Activity: inactive
Daucus carota [20]
  Activity: inactive
Daucus carota [21]
  Activity: inactive
Daucus carota [22]
  Activity: Active
Daucus carota [23]
  Activity: Active
Daucus carota [24]
  Activity: Active
Daucus carota [25]
  Activity: inactive
Daucus carota [26]
  Activity: Active
Daucus carota [27]
  growth, % of control at 1000 µM: 64.9%
Daucus carota [28]
  growth, % of control at 1000 µM: 60.9%
Daucus carota [29]
  growth, % of control at 1000 µM: 62%
Daucus carota [30]
  growth, % of control at 1000 µM: 59.6%
Daucus carota [31]
  growth, % of control at 100 µM: 83.7%
Daucus carota [32]
  growth, % of control at 100 µM: 88.2%
Daucus carota [33]
  growth, % of control at 100 µM: 80.9%
Daucus carota [34]
  growth, % of control at 100 µM: 84.7%
